Numbers after ± are expanded uncertainties.
Assay: activity coefficient (dimensionless); of the first substance listed, at infinite dilution; xn = mol fraction of the nth substance listed
Conditions: Liquid, Chromatography, x1 = 0

Compound | activity coefficient (323.15 K) | activity coefficient (333.15 K) | activity coefficient (343.15 K)
C#CCCCCC [1-heptyne] + Cn1cc[n+](COCCCOC[n+]2ccn(C)c2)c1.O=S(=O)([N-]S(=O)(=O)C(F)(F)F)C(F)(F)F.O=S(=O)([N-]S(=O)(=O)C(F)(F)F)C(F)(F)F | 5.9 ± 0.4 | 6.09 ± 0.42 | 5.71 ± 0.39
C#CCCCCC [1-heptyne] + N#C[N-]C#N.N#C[N-]C#N.c1ccc(Cn2cc[n+](COCCCOC[n+]3ccn(Cc4ccccc4)c3)c2)cc1 | 19.1 ± 1.3 | 17.2 ± 1.2 | 15.9 ± 1.1
C#CCCCC [1-hexyne] + CCCCCCCCn1cc[n+](COCCC)c1C.N#C[N-]C#N | 1.73 ± 0.12 | 2.14 ± 0.15 | 2.01 ± 0.14
C#CCCCC [1-hexyne] + CCCCCCCCn1cc[n+](COCCC)c1C.O=S(=O)([N-]S(=O)(=O)C(F)(F)F)C(F)(F)F | 1.39 ± 0.09 | 1.36 ± 0.09 | 1.34 ± 0.09
C#CCCCC [1-hexyne] + CCCCCCCCn1cc[n+](COCCCOC[n+]2ccn(CCCCCCCC)c2C)c1C.N#C[N-]C#N.N#C[N-]C#N | 1.72 ± 0.12 | 1.68 ± 0.11 | 1.63 ± 0.11
C#CCCCC [1-hexyne] + CCCCCCCCn1cc[n+](COCCCOC[n+]2ccn(CCCCCCCC)c2C)c1C.O=S(=O)([N-]S(=O)(=O)C(F)(F)F)C(F)(F)F.O=S(=O)([N-]S(=O)(=O)C(F)(F)F)C(F)(F)F | 1.13 ± 0.07 | 1.13 ± 0.07 | 1.14 ± 0.07
C#CCCCC [1-hexyne] + CCCOC[n+]1ccc(N(C)C)cc1.O=S(=O)([N-]S(=O)(=O)C(F)(F)F)C(F)(F)F | 2.51 ± 0.17 | 2.5 ± 0.17 | 2.5 ± 0.17
C#CCCCC [1-hexyne] + CCCOC[n+]1ccn(C)c1.F[B-](F)(F)F | 10.3 ± 0.7 | 10.1 ± 0.69 | 9.44 ± 0.64
C#CCCCC [1-hexyne] + CCCOC[n+]1ccn(C)c1.N#C[N-]C#N | 6.98 ± 0.48 | 7.6 ± 0.52 | 
C#CCCCC [1-hexyne] + CCCOC[n+]1ccn(C)c1.O=S(=O)([N-]S(=O)(=O)C(F)(F)F)C(F)(F)F | 3.39 ± 0.23 | 3.4 ± 0.23 | 3.4 ± 0.23
C#CCCCC [1-hexyne] + CCCOC[n+]1ccn(Cc2ccccc2)c1.F[B-](F)(F)F | 5.61 ± 0.38 | 5.52 ± 0.38 | 5.42 ± 0.37
C#CCCCC [1-hexyne] + CCCOC[n+]1ccn(Cc2ccccc2)c1.N#C[N-]C#N | 4.41 ± 0.3 | 4.29 ± 0.29 | 
C#CCCCC [1-hexyne] + CCCOC[n+]1ccn(Cc2ccccc2)c1.O=S(=O)([N-]S(=O)(=O)C(F)(F)F)C(F)(F)F | 2.14 ± 0.15 | 2.35 ± 0.16 | 
C#CCCCC [1-hexyne] + CN(C)c1cc[n+](COCCCOC[n+]2ccc(N(C)C)cc2)cc1.O=S(=O)([N-]S(=O)(=O)C(F)(F)F)C(F)(F)F.O=S(=O)([N-]S(=O)(=O)C(F)(F)F)C(F)(F)F | 3 ± 0.2 | 2.96 ± 0.2 | 2.92 ± 0.2
C#CCCCC [1-hexyne] + Cn1cc[n+](COCCCOC[n+]2ccn(C)c2)c1.N#C[N-]C#N.N#C[N-]C#N | 15.8 ± 1.1 | 15.2 ± 1 | 14.6 ± 1
C#CCCCC [1-hexyne] + Cn1cc[n+](COCCCOC[n+]2ccn(C)c2)c1.O=S(=O)([N-]S(=O)(=O)C(F)(F)F)C(F)(F)F.O=S(=O)([N-]S(=O)(=O)C(F)(F)F)C(F)(F)F | 3.81 ± 0.26 | 3.68 ± 0.25 | 3.4 ± 0.23

Compound | activity coefficient (323.15 K) | activity coefficient (333.15 K) | activity coefficient (343.15 K)
C#CCCCC [1-hexyne] + N#C[N-]C#N.N#C[N-]C#N.c1ccc(Cn2cc[n+](COCCCOC[n+]3ccn(Cc4ccccc4)c3)c2)cc1 | 14.1 ± 0.96 | 11.7 ± 0.8 | 
CCC[N+](=O)[O-] [1-nitropropane] + CCCCCCCCn1cc[n+](COCCC)c1C.N#C[N-]C#N | 0.76 ± 0.05 | 0.75 ± 0.05 | 0.75 ± 0.05
CCC[N+](=O)[O-] [1-nitropropane] + CCCCCCCCn1cc[n+](COCCC)c1C.O=S(=O)([N-]S(=O)(=O)C(F)(F)F)C(F)(F)F | 0.54 ± 0.04 | 0.53 ± 0.04 | 0.53 ± 0.04
CCC[N+](=O)[O-] [1-nitropropane] + CCCCCCCCn1cc[n+](COCCCOC[n+]2ccn(CCCCCCCC)c2C)c1C.N#C[N-]C#N.N#C[N-]C#N | 0.59 ± 0.04 | 0.58 ± 0.04 | 0.58 ± 0.04
CCC[N+](=O)[O-] [1-nitropropane] + CCCCCCCCn1cc[n+](COCCCOC[n+]2ccn(CCCCCCCC)c2C)c1C.O=S(=O)([N-]S(=O)(=O)C(F)(F)F)C(F)(F)F.O=S(=O)([N-]S(=O)(=O)C(F)(F)F)C(F)(F)F | 0.34 ± 0.03 | 0.33 ± 0.03 | 0.32 ± 0.03
CCC[N+](=O)[O-] [1-nitropropane] + CCCOC[n+]1ccc(N(C)C)cc1.O=S(=O)([N-]S(=O)(=O)C(F)(F)F)C(F)(F)F | 0.68 ± 0.05 | 0.69 ± 0.05 | 0.69 ± 0.05
CCC[N+](=O)[O-] [1-nitropropane] + CCCOC[n+]1ccn(C)c1.F[B-](F)(F)F | 1.78 ± 0.12 | 1.78 ± 0.12 | 1.78 ± 0.12
CCC[N+](=O)[O-] [1-nitropropane] + CCCOC[n+]1ccn(C)c1.N#C[N-]C#N | 1.36 ± 0.09 | 1.37 ± 0.09 | 1.39 ± 0.09
CCC[N+](=O)[O-] [1-nitropropane] + CCCOC[n+]1ccn(C)c1.O=S(=O)([N-]S(=O)(=O)C(F)(F)F)C(F)(F)F | 0.74 ± 0.05 | 0.72 ± 0.05 | 0.72 ± 0.05
CCC[N+](=O)[O-] [1-nitropropane] + CCCOC[n+]1ccn(Cc2ccccc2)c1.F[B-](F)(F)F | 1.16 ± 0.07 | 1.12 ± 0.07 | 1.14 ± 0.07
CCC[N+](=O)[O-] [1-nitropropane] + CCCOC[n+]1ccn(Cc2ccccc2)c1.N#C[N-]C#N | 1.04 ± 0.07 | 1.06 ± 0.07 | 1.06 ± 0.07
CCC[N+](=O)[O-] [1-nitropropane] + CCCOC[n+]1ccn(Cc2ccccc2)c1.O=S(=O)([N-]S(=O)(=O)C(F)(F)F)C(F)(F)F | 0.53 ± 0.04 | 0.46 ± 0.04 | 0.47 ± 0.04
CCC[N+](=O)[O-] [1-nitropropane] + CN(C)c1cc[n+](COCCCOC[n+]2ccc(N(C)C)cc2)cc1.O=S(=O)([N-]S(=O)(=O)C(F)(F)F)C(F)(F)F.O=S(=O)([N-]S(=O)(=O)C(F)(F)F)C(F)(F)F | 0.57 ± 0.04 | 0.59 ± 0.04 | 0.56 ± 0.04
CCC[N+](=O)[O-] [1-nitropropane] + Cn1cc[n+](COCCCOC[n+]2ccn(C)c2)c1.O=S(=O)([N-]S(=O)(=O)C(F)(F)F)C(F)(F)F.O=S(=O)([N-]S(=O)(=O)C(F)(F)F)C(F)(F)F | 0.54 ± 0.04 | 0.54 ± 0.04 | 0.53 ± 0.04
CCC[N+](=O)[O-] [1-nitropropane] + N#C[N-]C#N.N#C[N-]C#N.c1ccc(Cn2cc[n+](COCCCOC[n+]3ccn(Cc4ccccc4)c3)c2)cc1 | 1.76 ± 0.12 | 1.73 ± 0.12 | 1.75 ± 0.12

Source: the NIST ThermoML archive (doi:10.1016/j.fluid.2014.11.020)
